Assay results as given in patent US20230398130A1, “METHODS AND COMPOSITIONS FOR DIFFERENTIATING STEM CELLS” (Massachusetts Institute of Technology, priority 2020, published 2023).
Entries after “also recorded” stand apart in the source; their conditions may differ.

Tested on: ISC-enriched organoids
Test: Lysozyme secretion assay, 3-D organoids in ENR+CD, normalized to ATP
Assay type: cell-based, murine
Conditions: for Paneth cell differentiation (functional LYZ secretion), in combination with KPT-330: 6-day ENR+CD differentiation with 160 nM KPT-330; for Paneth cell differentiation (functional LYZ secretion), compound alone: 6-day ENR+CD differentiation, 10 μM SR11302, 20 nM Cobimetinib, others over a dose range
Protocol: Lysozyme assay (3D culture). ISC-enriched organoids cultured in 3D Matrigel with ENRCV media were passaged to 48-well plate in 3D Matrigel with ENRCV. At day zero, media were replaced to ENR or ENRCD with or without indicated compounds, and media were replaced every other day. At day six, cells were washed twice with basal media and treated with carbamylcholine chloride (Sigma, C4382) for 3 hours. Media were collected and lysozyme activity was measured by EnzChek Lysozyme Assay Kit (ThermoFisher, E22013).
(§1) Lysozyme secretion assay. ISC-enriched organoids in 3D Matrigel culture were passaged to a 48- or 96-well plate and cultured with ENR or ENR+CD media containing DMSO or each drug for 6 days. DMSO- or drug-containing media were changed every other day. On day 6, cells were washed with basal media twice and treated with basal media with or without 10 μM carbamoylcholine chloride for 3 h in a CO2 incubator at 37° C. A part of the conditioned media was collected and used for lysozyme assay (Thermo, E-22013) following the manufacturer's instruction. The fluorescence was measured using excitation/emission of 485/530 nm. CellTiter-Glo 3D Reagent (Promega, G9681) was added afterward, and the cell culture plate was incubated on an orbital shaker at RT for 30 min to induce cell lysis and to stabilize the luminescent signal. The solution was replaced to a 96-well white microplate, and luminescent signals were measured by a microplate reader (infinite M200, Tecan). The standard curve was prepared by diluting recombinant ATP (Promega, P1132). For both assays, a polynomial cubic curve was fitted to a set of standard data, and each sample value was calculated on the Microsoft Excel.
as §1, with “in 3-D” for “in 3D”, “μM carbachol” for “μM carbamoylcholine chloride”, “3 hours” for “3 h”, “C. Conditioned” for “C. A part of the conditioned”, “nm. CTG” for “nm. CellTiter-Glo”, “Reagent” for “Reagent (Promega, G9681)”

Structure (SMILES)	Paneth cell differentiation (functional LYZ secretion), in combination with KPT-330	Paneth cell differentiation (functional LYZ secretion), compound alone
Cc1ccc(C(=O)Cn2c3c(sc2=N)CCCC3)cc1 [pifithrin-a]	neither P53 inhibitor altered Paneth cell differentiation; also recorded: did not alter Paneth cell differentiation	neither P53 inhibitor altered Paneth cell differentiation; also recorded: did not alter Paneth cell differentiation
CC1=C(/C=C/C(=C/C=C/C(C)=C/C(=O)O)c2ccc(C)cc2)C(C)(C)CCC1 [SR11302]	significantly decreases functional LYZ secretion	also decreases functional LYZ secretion; also recorded: significantly decreases functional LYZ secretion
